According to patent US7569724B2, “Carbamic acid compounds comprising an amide linkage as HDAC inhibitors” (Topotarget UK Limited, priority 2000, dated 2009):
Like-named read-outs stand apart in the source and are kept apart here.

How the values were obtained:
[1] = system: HeLa cells; assay: Secondary assay: cell proliferation WST-1, HeLa; assay type: cell-based; settings: Homo sapiens, 48 h, read-out: Cell Proliferation Inhibition WST-1 (IC50 unless otherwise specified) HeLa
Method: (§1) Compounds with HDAC inhibition activity, as determined using the primary assay, were subsequently evaluated using secondary cell-based assays. The following cell lines were used:
HeLa—Human cervical adenocarcinoma cell line (ATCC ref. No. CCL-2).
(§2) Cells were plated in 96-well plates at 3-10×10^3 cells/well in 100 μL of culture medium. The following day, different concentrations of candidate compounds were added and the cells incubated at 37° C. for 48 h. Subsequently, 10 μL/well of WST-1 reagent was added and the cells reincubated for 1 hour. After the incubation time, absorbance was measured.
(§3) WST-1 is a tetrazolium salt which is cleaved to formazan dye by cellular enzymes. An expansion in the number of viable cells results in an increase in the overall activity of mitochondrial dehydrogenases in the sample. This augmentation in the enzyme activity leads to an increase in the amount of formazan dye formed, which directly correlates to the number of metabolically active cells in the culture. The formazan dye produced is quantified by a scanning multiwell spectrophotometer by measuring the absorbance of the dye solution at 450 nm wavelength (reference wavelength 690 nm).
(§4) Percent activity (% activity) in reducing the number of viable cells was calculated for each test compound as: % activity={(S^C−B)/(S^o−B)}×100 wherein S^C denotes signal measured in the presence of the compound being tested, S^o denotes signal measured in the absence of the compound being tested, and B denotes the background signal measured in blank wells containing medium only.
(§5) IC50 values were calculated using the software package Prism 3.0 (GraphPad software Inc., San Diego, Calif.), setting top value at 100 and bottom value at 0.

[2] = system: HDAC (HeLa cell extract); assay: Primary assay: deacetylase activity, HeLa cell extract as source of HDAC; assay type: biochemical, human; settings: HeLa cell extract
From the text: Briefly, this assay relies on the release of radioactive acetate from a radioactively labelled histone fragment by the action of HDAC enzyme. Test compounds, which inhibit HDAC, reduce the yield of radioactive acetate. Signal (e.g., scintillation counts) measured in the presence and absence of a test compound provide an indication of that compound's ability to inhibit HDAC activity. Decreased activity indicates increased inhibition by the test compound.
The histone fragment was an N-terminal sequence from histone H4, and it was labelled with radioactively labelled acetyl groups using tritiated acetylcoenzyme A (coA) in conjunction with an enzyme which is the histone acetyltransferase domain of the transcriptional coactivator p300. […] The acetylated peptide was then separated from free acetyl coA by size exclusion chromatography on Sephadex G-15 (Sigma G-15-120), using distilled H2O as the mobile phase.
After purification of the radiolabelled histone fragment, it was incubated with a source of HDAC (e.g., an extract of HeLa cells (a rich source of HDAC), recombinantly produced HDAC1 or HDAC2) and any released acetate was extracted into an organic phase and quantitatively determined using scintillation counting. By including a test compound with the source of HDAC, that compound's ability to inhibit the HDAC was determined.
The HeLa cell extract was made from HeLa cells (ATCC Ref. No. CCL-2) by freeze-thawing three times in 60 mM TrisCl pH 8.0, 450 mM NaCl, 30% glycerol. Two cell volumes of extraction buffer were used, and particulate material was centrifuged out (20800 g, 4° C., 10 min). The supernatant extract having deacetylase activity was aliquotted and frozen for storage.
A source of HDAC (e.g., 2 μL of crude HeLa extract, 5 μL of HDAC1 or HDAC2; in elution buffer, as above) was incubated with 3 μL of radioactively labelled peptide along with appropriate dilutions of candidate compounds (1.5 μL) in a total volume of 150 μL of buffer (20 mM Tris pH 7.4, 10% glycerol). The reaction was carried out at 37° C. for one hour, after which the reaction was stopped by adding 20 μL of 1 M HCl/0.4 M sodium acetate. […] Radioactivity was measured using a Tri-Carb 2100TR Liquid Scintillation Analyzer (Packard).
Percent activity (% activity) for each test compound was calculated as: % activity={(S^C−B)/(S^o−B)}×100 wherein S^C denotes signal measured in the presence of enzyme and the compound being tested, S^o denotes signal measured in the presence of enzyme but in the absence of the compound being tested, and B denotes the background signal measured in the absence of both enzyme and compound being tested.

[3] = system: K11 HPV E7 transformed human keratinocyte line; assay: Secondary assay: cell proliferation WST-1, K11; assay type: cell-based; settings: Homo sapiens, Keratinocyte, 48 h, read-out: Cell Proliferation Inhibition WST-1 (IC50 unless otherwise specified) K11
Method: as §1
K11—HPV E7 transformed human keratinocyte line provided by Pidder Jansen-Duerr, Institut für Biomedizinische Alternsforschung, Innsbruck, Austria.
as §2, §3, §4, §5

[4] = system: JURKAT human T-cell line; assay: Secondary assay: cell proliferation WST-1, Jurkat; assay type: cell-based; settings: Homo sapiens, 48 h, read-out: Cell Proliferation Inhibition WST-1 (IC50 unless otherwise specified) Jurkat
Method: as §1
JURKAT—Human T-cell line (ATCC no. TIB-152).
as §2, §3, §4, §5

[5] = read-out: HDAC Inhibition (IC50 unless otherwise specified) HeLa
[6] = comparative tables, read-out: HeLa IC50

SMILES	melting point [°C]	IC50 [1] [nM]	IC50 [2, 5] [nM]	IC50 [2, 6] [nM]	IC50 ([2]; comparative tables, no unit in cell, read-out: HeLa IC50) [nM]	IC50 [3] [nM]	IC50 [4] [nM]	HDAC Inhibition HeLa, percent ([2]; @ 500 nM) [% @ 500 nM]	percent HDAC inhibition at the stated concentration ([2]; comparative tables, @ 500 nM) [% @ 500 nM]
O=C(CCCCCNC(=O)c1ccc2ccccc2c1)NO [PX105687, Naphthalene-2-carboxylic acid (5-hydroxycarbamoylpentyl)amide]	–	–	–	–	–	2600	400	–	–
O=C(/C=C/C=C/c1ccccc1[N+](=O)[O-])NCCCCCC(=O)NO [PX105830, (2E,4E)-5-(2-Nitrophenyl)penta-2,4-dienoic acid (5-hydroxycarbamoyl-pentyl)amide]	131 to 133	14000	82	–	–	–	–	–	–
O=C(/C=C/C=C/c1ccc([N+](=O)[O-])cc1)NCCCCCC(=O)NO [PX105847, (2E,4E)-5-(4-Nitrophenyl)penta-2,4-dienoic acid (5-hydroxycarbamoyl-pentyl)-amide]	111 to 113	8300	75	–	–	–	–	–	–
O=C(/C=C/c1ccco1)NCCCCCC(=O)NO [PX106491, 3-Furan-2-yl-N-(5-hydroxycarbamoyl-pentyl)-acrylamide]	151 to 152.5	520	83	83	–	–	–	–	–
C/C(=C\C=C\c1ccccc1)C(=O)NCCCCCC(=O)NO [PX106520, (2E,4E)-2-Methyl-5-phenylpenta-2,4-dienoic acid (5-hydroxycarbamoylpentyl)-amide]	158 to 160	8400	63	–	–	–	–	–	–
CN(C)c1ccc(/C=C/C=C/C(=O)NCCCCCC(=O)NO)cc1 [PX106527, (2E,4E)-5-(4-Dimethylamino-phenyl)-penta-2,4-dienoic acid (5-hydroxycarbamoyl-pentyl)-amide]	172 to 174	1000	24	24	–	–	–	–	–
O=C(/C=C/c1cccs1)NCCCCCC(=O)NO [PX117247, N-(5-Hydroxycarbamoyl-pentyl)-3-thiophen-2-yl-acrylamide]	151 to 153	570	19	–	–	–	–	–	–
O=C(CCCCCCC(=O)NCC(c1ccccc1)c1ccccc1)NO [PX117249, Octanedioic acid (2,2-diphenyl-ethyl)-amide hydroxyamide]	123 to 123.5	11000	–	–	–	–	–	64	–
O=C(CCCCCNC(=O)[C@H](Cc1c[nH]c2ccccc12)NC(=O)Cc1ccc2ccccc2c1)NO [PX117406, N-Hydroxy-6-[((2S)-3-(1H-indol-3-yl)-2-{[2-(2-naphthyl)acetyl]-amino}propanoyl)amino]-hexanamide]	112 to 114	6900	–	–	–	–	–	48	–
O=C(CCCCCNC(=O)[C@H](Cc1c[nH]c2ccccc12)NC(=O)CCCc1ccccc1)NO [PX117407, N-hydroxy-6-({(2S)-3-(1H-indol-3-yl)-2-[(4-phenylbutanoyl)amino]-propanoyl}amino)-hexanamide]	106 to 108	13000	–	–	–	–	–	40	–
C/C(=C\C#Cc1ccccc1)C(=O)NCCCCCC(=O)NO [PX117451, E-2-Methyl-5-phenylpent-2-en-4-ynoic acid (5-hydroxycarbamoyl-pentyl)amide]	–	22000	31	–	–	12000	–	–	–
CN(C)c1ccc(CC(=O)NCCCCCC(=O)NO)cc1 [PX117458, 6-[2-(4-Dimethylamino-phenyl)-acetylamino]-hexanoic acid hydroxyamide]	124 to 126	–	–	–	–	–	–	9	9

More lines, main results first:

melting point [°C]	IC50 [1] [nM]	IC50 [2, 5] [nM]	IC50 [2, 6] [nM]	IC50 ([2]; comparative tables, no unit in cell, read-out: HeLa IC50) [nM]	SMILES	IC50 [3] [nM]	IC50 [4] [nM]	HDAC Inhibition HeLa, percent ([2]; @ 500 nM) [% @ 500 nM]	percent HDAC inhibition at the stated concentration ([2]; comparative tables, @ 500 nM) [% @ 500 nM]
129	24000	1500	1500	–	CN(C)c1ccc(C(=O)NCCCCC(=O)NO)c2ccccc12 [PX082534, 4-Dimethylamino-napthalene-1-carboxylic acid (4-hydroxycarbamoyl-butyl)-amide]	–	–	–	–
113.5 to 115	18000	396	400	–	O=C(CCCCCNC(=O)c1ccco1)NO [PX105826, Furan-2-carboxylic acid (5-hydroxycarbamoyl-pentyl)-amide]	–	–	–	–
118 to 119	17000	333	333	–	O=C(CCCCCNC(=O)c1cccc2ccccc12)NO [PX105828, Naphthalene-1-carboxylic acid (5-hydroxycarbamoyl-pentyl)-amide]	–	–	–	–
150 to 151.5	5800	82	–	–	CC(C)(C)c1ccc(C(=O)NCCCCCC(=O)NO)cc1 [PX106496, 4-tert-Butyl-N-(5-hydroxycarbamoylpentyl)benzamide]	–	–	–	–
147 to 149	650	62	–	62	O=C(/C=C/C=C/c1ccccc1)NCCCCCCC(=O)NO [PX106518]	–	–	–	–
118.5 to 120	6000	100	–	–	O=C(CCCCCCC(=O)NCCc1c[nH]c2ccccc12)NO [PX116216, Octanedioic acid hydroxyamide [2-(1H-indol-3-yl)-ethyl]-amide]	–	–	–	–
97 to 98	71000	–	–	–	O=C(CCCCCNC(=O)CCCCc1ccccc1)NO [PX117261, 6-(5-Phenyl-pentanoylamino)-hexanoic acid hydroxyamide]	–	–	51	–
140 to 142	11000	–	–	–	O=C(CCCCCC(=O)NCCc1c[nH]c2ccccc12)NO [PX117408, N^1-Hydroxy-N^7-[2-(1H-indol-3-yl)ethyl]heptanediamide]	–	–	41	–
112 to 113	11000	62	–	–	O=C(C#Cc1ccccc1)NCCCCCC(=O)NO [PX117415, 3-Phenyl-propynoic acid (5-hydroxycarbamoyl-pentyl)-amide]	–	–	–	–
127.5 to 128	3100	85	–	–	CC(C)c1ccc(C(=O)NCCCCCC(=O)NO)cc1 [PX117421, N-[6-(Hydroxyamino)-6-oxohexyl]-4-isopropylbenzamide]	–	–	–	–
101 to 103	45000	688	–	–	O=C(CCCCCNC(=O)CC/C=C\c1ccccc1)NO [PX117444, (Z)-N-[6-(Hydroxyamino)-6-oxohexyl]-5-phenyl4-pentenamide]	–	–	–	–
141 to 143	–	–	–	–	O=C(CCCCCCC(=O)NCc1cccc2ccccc12)NO [PX117459, Octanedioic acid hydroxyamide (naphthalen-1-ylmethyl)-amide]	–	–	63	–
142 to 144	> 5000	20	–	–	O=C(CCCCCC(=O)Nc1ccc2ccccc2c1)NO [PX117461, Heptanedioic acid hydroxyamide naphthalen-2-ylamide]	–	–	–	–
